Assay results: patent US10150728B2, “Alkylene derivatives” (Shionogi & Co., Ltd., priority 2013, dated 2018)

target: recombinant human ACC2 (Homo sapiens (Human), UniProt O00763); experiment: Measurement of inhibitory activity on human ACC2 (MALDI-TOF MS, acetyl CoA to malonyl CoA conversion); type: biochemical; details: Table 154
From the text: Preparation 1: Preparation of Recombinant Human ACC2
After a cDNA encoding human ACC2 (27 amino acid residue to 2458 amino acid residues from the N-terminus) was cloned from human kidney cDNA library (Clontech), human ACC2 gene containing His-tag sequence at 5′ terminus was inserted into pFastBac1 (Invitrogen). Recombinant baculovirus was generated using Bac-to-Bac baculovirus expression system (Invitrogen) according to the manufacturer's protocol. To express human ACC2, Sf-9 cells were infected with recombinant baculovirus. After infected cells were disrupted, the filtrated lysate was subjected to Ni-affinity chromatography and anion-exchange chromatography. The fractions containing human ACC2 protein were pooled as recombinant human ACC2 solution.
The Measurement of Inhibitory Activity on Human ACC1 and the ACC2
Recombinant human ACC1 and recombinant human ACC2, which were prepared by the method mentioned above, were preincubated with assay buffer solution (50 mM HEPES-KOH (pH 7.4), 10 mM magnesium chloride, 6-10 mM potassium citrate, 4 mM reduced form of glutathione, 1.5 mg/ml bovine serum albumin) for one hour. Then, 0.2 μL of each this invention compound solution (in DMSO) were dispensed to 384-well microplate, 5 μL of the preincubated enzyme solution and 5 μL of substrate solution (50 mM HEPES-KOH (pH 7.4), 1 mM ATP, 0.8 mM acetyl CoA and 25-50 mM potassium bicarbonate) were added to microplate. After centrifugation and shaking, the reaction mixtures were incubated in a humidified box at room temperature for 1 to 3 hours. After the incubation, the enzyme reactions were stopped by the addition of EDTA. Then, after the samples were cocrystallized with CHCA (α-cyano-4-hydroxy cinnamic acid) matrices on MALDI target plate, by using the matrix assist laser […] time-of-flight mass spectrometer (MALDI-TOF MS), samples were measured in reflector negative mode. Deprotonated ions of acetyl CoA (AcCoA) of substrate and malonyl CoA (MalCoA) of the reaction product were detected, then, the conversion rates of acetyl CoA to malonyl CoA was calculated by the intensity of [MalCoA-H]−/(Intensity of [MalCoA-H]−+Intensity of [AcCoA-H]−) using each signal strength. […] In addition, potassium citrate concentrations in assay buffer solution, potassium hydrogen carbonate concentrations in substrate solution and incubation time were adjusted by each lot of enzyme.

Chain of recombinant human ACC2 (O00763 27-2458): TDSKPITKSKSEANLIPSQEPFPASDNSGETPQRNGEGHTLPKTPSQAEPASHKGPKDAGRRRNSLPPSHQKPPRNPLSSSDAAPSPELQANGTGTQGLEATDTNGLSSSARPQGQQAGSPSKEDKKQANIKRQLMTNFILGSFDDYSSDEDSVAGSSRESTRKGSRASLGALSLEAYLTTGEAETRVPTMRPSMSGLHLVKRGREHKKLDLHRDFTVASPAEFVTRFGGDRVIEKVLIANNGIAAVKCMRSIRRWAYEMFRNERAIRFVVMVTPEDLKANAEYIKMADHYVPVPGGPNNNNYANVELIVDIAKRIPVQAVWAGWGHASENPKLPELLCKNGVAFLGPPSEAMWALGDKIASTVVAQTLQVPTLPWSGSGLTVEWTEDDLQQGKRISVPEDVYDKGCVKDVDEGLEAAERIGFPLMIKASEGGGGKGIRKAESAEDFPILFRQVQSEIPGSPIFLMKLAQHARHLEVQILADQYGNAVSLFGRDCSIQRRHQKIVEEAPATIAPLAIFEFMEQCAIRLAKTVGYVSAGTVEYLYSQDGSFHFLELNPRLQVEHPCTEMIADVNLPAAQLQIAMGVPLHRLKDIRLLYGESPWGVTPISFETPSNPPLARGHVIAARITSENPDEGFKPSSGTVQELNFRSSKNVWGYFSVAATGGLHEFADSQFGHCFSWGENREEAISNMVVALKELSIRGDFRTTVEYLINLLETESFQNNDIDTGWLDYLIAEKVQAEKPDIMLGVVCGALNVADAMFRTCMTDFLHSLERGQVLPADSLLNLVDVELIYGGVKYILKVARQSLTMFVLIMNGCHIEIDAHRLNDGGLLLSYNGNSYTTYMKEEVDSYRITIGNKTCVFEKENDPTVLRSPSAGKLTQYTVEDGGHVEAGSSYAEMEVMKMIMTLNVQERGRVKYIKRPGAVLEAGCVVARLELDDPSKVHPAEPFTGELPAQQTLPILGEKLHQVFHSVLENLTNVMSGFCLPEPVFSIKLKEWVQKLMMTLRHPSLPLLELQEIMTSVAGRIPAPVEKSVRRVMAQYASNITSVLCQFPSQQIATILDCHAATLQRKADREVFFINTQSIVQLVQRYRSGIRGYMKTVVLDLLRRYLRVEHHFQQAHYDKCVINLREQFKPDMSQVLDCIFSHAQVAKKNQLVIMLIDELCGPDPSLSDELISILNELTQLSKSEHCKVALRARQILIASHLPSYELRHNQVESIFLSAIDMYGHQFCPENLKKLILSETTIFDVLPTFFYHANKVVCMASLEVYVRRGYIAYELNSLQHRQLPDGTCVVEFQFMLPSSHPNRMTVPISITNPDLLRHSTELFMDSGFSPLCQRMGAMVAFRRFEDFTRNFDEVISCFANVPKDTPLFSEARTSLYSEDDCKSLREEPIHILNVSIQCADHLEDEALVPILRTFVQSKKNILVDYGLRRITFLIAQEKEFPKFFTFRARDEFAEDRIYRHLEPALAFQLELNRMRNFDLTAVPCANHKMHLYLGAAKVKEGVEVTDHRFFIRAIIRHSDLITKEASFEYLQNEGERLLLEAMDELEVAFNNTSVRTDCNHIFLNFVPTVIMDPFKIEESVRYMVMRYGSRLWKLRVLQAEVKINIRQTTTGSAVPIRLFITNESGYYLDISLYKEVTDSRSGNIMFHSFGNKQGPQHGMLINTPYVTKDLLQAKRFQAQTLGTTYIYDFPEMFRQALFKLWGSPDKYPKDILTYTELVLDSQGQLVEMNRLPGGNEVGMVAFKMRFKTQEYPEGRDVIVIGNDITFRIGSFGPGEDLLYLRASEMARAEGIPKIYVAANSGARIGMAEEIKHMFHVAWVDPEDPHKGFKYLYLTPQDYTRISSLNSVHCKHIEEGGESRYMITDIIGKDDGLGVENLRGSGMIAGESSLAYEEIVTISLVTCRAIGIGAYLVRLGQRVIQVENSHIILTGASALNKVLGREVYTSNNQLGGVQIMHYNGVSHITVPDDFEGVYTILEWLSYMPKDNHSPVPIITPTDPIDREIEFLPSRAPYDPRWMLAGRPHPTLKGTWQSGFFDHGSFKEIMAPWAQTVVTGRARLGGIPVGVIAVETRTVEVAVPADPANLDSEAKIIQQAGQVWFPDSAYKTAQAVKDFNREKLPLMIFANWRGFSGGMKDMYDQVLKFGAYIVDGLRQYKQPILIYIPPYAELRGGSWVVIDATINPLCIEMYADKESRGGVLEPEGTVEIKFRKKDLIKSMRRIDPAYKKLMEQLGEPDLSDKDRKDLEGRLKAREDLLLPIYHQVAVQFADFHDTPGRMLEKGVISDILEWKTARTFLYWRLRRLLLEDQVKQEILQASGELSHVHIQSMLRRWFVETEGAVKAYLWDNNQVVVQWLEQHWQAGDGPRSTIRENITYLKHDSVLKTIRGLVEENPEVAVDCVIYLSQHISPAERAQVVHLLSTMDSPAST

IC50 [nM]	Compound
133	CC(C)c1nc2ccc(Oc3ccc(OC[C@H](C)NC(N)=O)nc3)c(Cl)c2s1 [Compound I-024]
13	CCOc1nc2ccc(O[C@H]3CC[C@H](OC[C@H](C)NC(C)=O)CC3)c(F)c2s1 [Compound I-055]
115	CCOc1nc2ccc(Oc3cnc(O[C@H](C)[C@H](C)NC(C)=O)cn3)c(F)c2s1 [Compound I-061]
75	CC(=O)N[C@@H](C)COc1ccc(Oc2ccc3nc(C(C)C)sc3c2F)cn1 [Compound I-018]
12	CC(=O)N[C@@H](C)CO[C@H]1CC[C@H](Oc2ccc3nc(C(C)(F)F)sc3c2F)CC1 [Compound I-053]
336	CC(=O)N[C@@H](C)CO[C@H]1CC[C@H](Oc2ccc3nc(C(C)(C)O)sc3c2Cl)CC1 [Compound I-047]
220	CC(=O)N[C@@H](C)CC(=O)c1ccc(Oc2ccc(OCC3CC3)cc2Cl)nc1 [Compound I-008]

same assay, conditions: Tables 155-159

IC50 [nM]	Compound
7	CC(=O)N[C@@H](C)CO[C@H]1C[C@H](COc2ncnc(OCc3ccc(Cl)cn3)c2F)C1 [Compound I-467]
49	CC(=O)N[C@@H](C)CO[C@H]1C[C@H](COc2ncnc(OCc3cccc(C(F)(F)F)c3)c2Cl)C1 [Compound I-350]
18	CC(=O)N[C@@H](C)CO[C@H]1C[C@H](COc2nccc(C3=CCCC3)c2Cl)C1 [Compound I-335]
12	CC(=O)N[C@@H](C)CO[C@H]1C[C@H](COc2ccc3nc(OC[C@H](C)F)sc3n2)C1 [Compound I-191]
41	CC(=O)N[C@@H](C)CO[C@H]1CC[C@H](Oc2ncc(-c3ncc(F)cn3)cc2C#N)CC1 [Compound I-525]
7	CC(=O)N[C@@H](C)CO[C@H]1CC[C@H](Oc2ncc3nc(OC(C)C)sc3c2F)CC1 [Compound I-240]
102	CC(=O)N[C@@H](C)CO[C@H]1C[C@H](COc2nccc(N3CCC(F)(F)CC3)c2Cl)C1 [Compound I-375]
3	CCOc1cc(F)c2nc(O[C@H]3CC[C@H](OC[C@H](C)NC(C)=O)CC3)n(C)c2c1Cl [Compound I-740]
40	CC(=O)N[C@@H](C)CO[C@H]1CC[C@H](Oc2ccc3nc(OCC(F)F)n(C)c3n2)CC1 [Compound I-499]
27	CC(=O)N[C@@H](C)CO[C@H]1CC[C@H](Oc2ccc3nc(N4CCC(F)(F)C4)sc3c2F)CC1 [Compound I-189]
42	CC(=O)N[C@@H](C)CO[C@H]1C[C@](F)(COc2ccc3nc(OCC(F)F)sc3n2)C1 [Compound I-297]
74	CC(=O)N[C@@H](C)CO[C@H]1C[C@H](COc2nccc(OCC3CC3(F)F)c2Cl)C1 (some centres unmarked) [Compound I-316]
9	CC(=O)N[C@@H](C)CO[C@H]1CC[C@H](Oc2ccc3nc(OCC(F)(F)F)sc3c2F)CC1 [Compound I-121]
40	CC(=O)N[C@@H](C)CO[C@H]1C[C@H](COc2ncnc3c2ccn3C2CCCCC2)C1 [Compound I-451]
44	CC(=O)N[C@@H](C)CO[C@H]1CC[C@H](Oc2ccc3nc(C4(O)CCCC4)sc3c2F)CC1 [Compound I-146]
4	CC(=O)N[C@@H](C)CO[C@H]1CC[C@H](Oc2ccc3nc(OCC4CC4)sc3c2F)CC1 [Compound I-119]
315	CCOc1nc2ccc(OC[C@H]3C[C@@H](OC[C@H](C)NC(C)=O)C3)nc2n1C [Compound I-520]
490	CC(=O)N[C@@H](C)CC(O)[C@@H]1CC[C@@H](Oc2nc3c(F)cc(OCC(F)F)c(F)c3n2C)CO1 (some centres unmarked) [Compound I-745]
17	CC(=O)N[C@@H](C)CO[C@H]1CC[C@](F)(COc2ccc3nc(OCC4CC4)sc3n2)CC1 [Compound I-201]
152	CC(=O)N[C@@H](C)CO[C@H]1C[C@H](COc2ccc3nc(C(C)(C)O)sc3n2)C1 [Compound I-171]
15	CC(=O)N[C@@H](C)CO[C@H]1CC[C@H](Oc2ccc3nc(OC4CC(F)(F)C4)n(C)c3n2)CC1 [Compound I-497]
96	CC(=O)N[C@@H](C)CO[C@H]1CC[C@H](Oc2nc3cnc(C4CC4)c(Cl)c3n2C)CC1 [Compound I-695]
